Results reported in PubChem BioAssay AID489033 (Sanford-Burnham Center for Chemical Genomics, 2010).
Active and inactive are the calls of the source. How the calls were made is not given here.

System: 697B B-cell line, NF-kB luciferase reporter luminescence
Assay: NF-kB reporter inhibition in B cells, dose response, selectivity assay for T-cell antigen receptor NF-kB inhibitors, 697B cells, luminescence (AID 489033)

## Cn1nc([N+](=O)[O-])nc1Sc1nnc(-c2ccccc2)o1
  IC50: 17.8 µM

## COc1ccc(C2=Nn3c(nnc3-c3ccccc3OC)SC2)cc1OC1CCCC1
  IC50: 3.54 µM

## COc1ccc(CS(=O)(=O)/C(Cl)=C(/Cl)C(=O)Nc2ccc(OC)nc2)cc1
  IC50: 3.32 µM

## CCn1cc(C(=O)NC2CCCc3c2cnn3-c2cccc(C)c2C)cn1 (stereo not given)
  IC50: > 80 µM (inactive)

## CCOC(=O)c1[nH]c(C)c(C(=O)Nc2cc(Cl)ccc2C)c1C
  IC50: > 80 µM (inactive)

## CN(Cc1ccccc1)C1=CC(=[N+]2CCCCC2)CC(C)(C)C1
  IC50: > 80 µM (inactive)

## O=C1C=CCC(/C=C/c2ccccc2)O1 (stereo not given)
  IC50: 2.18 µM

## CC(=O)O[C@@]12CO[C@@H]1C[C@@H](O)[C@@]1(C)C(=O)[C@H](O)C3=C(C)[C@@H](OC(=O)[C@H](O)[C@@H](NC(=O)c4ccccc4)c4ccccc4)C[C@@](O)([C@@H](OC(=O)c4ccccc4)C12)C3(C)C (stereo not given in full)
  IC50: > 80 µM (inactive)

## NC(=O)CC(NC(=O)c1ccc(Br)cc1)c1ccc(N2CCCCCC2)c([N+](=O)[O-])c1 (stereo not given)
  IC50: 47.5 µM (inactive)

## CC1CC(C)CN(S(=O)(=O)c2ccc(NC(=O)c3ccc(=O)[nH]c3)cc2)C1 (stereo not given)
  IC50: > 80 µM (inactive)

## O=C(Nc1ccc(CSc2ccccc2)cc1)c1ccc(CN2CCOCC2)cc1
  IC50: > 80 µM (inactive)

## CCN(CC)c1ccc2nc3ccc(N)cc3[n+](-c3ccccc3)c2c1
  IC50: 57.5 µM (inactive)

## Cc1ccc2c(c1)sc(-c1ccc(N(C)C)cc1)[n+]2C
  IC50: 33.6 µM (inactive)

## Cc1cc(C)cc(NC(=O)c2ccc([N+](=O)[O-])o2)c1
  IC50: 21.3 µM (inactive)

## COc1ccc(CC(=O)Nc2nc(-c3ccc(F)c(F)c3)cs2)cc1OC
  IC50: 57.5 µM (inactive)

## CCc1ccc(N2C(=O)C(Cl)=C(Nc3ccc(C(=O)N4CCCC4)cc3)C2=O)cc1
  IC50: 2.28 µM

## Cc1ccc(C)c(NS(=O)(=O)c2ccc(-c3cnc(C4CC4)o3)cc2)c1
  IC50: > 80 µM (inactive)

## COC(=O)c1nn(-c2ccc3c(c2)CCN3C(C)=O)cc1O
  IC50: 5.08 µM

## O=C(Nc1nc2ccc(S(=O)(=O)N3CCCC3)cc2s1)C1CCCCC1
  IC50: > 80 µM (inactive)

## Cc1nc2c(=O)n(C)c(=O)nc-2n(C)n1
  IC50: 3.36 µM

## CC1(C)C[C@H]2C=C(C=O)[C@]3(C=O)C[C@]3(C)[C@H]2C1
  IC50: 7.97 µM

## Cc1nc2ccccc2c2c1CC(C(C)(Cl)Br)O2 (stereo not given)
  IC50: 22.8 µM (inactive)

## CCN1C=CC(=C2C(=O)c3ccccc3C2=O)C=C1
  IC50: 1.13 µM

## COc1ccc2c(c1)C(=O)N1[C@H]3c4cc(Br)ccc4OC[C@@H]3[C@H](c3ccccc3)[C@]1(C)C(=O)N2
  IC50: > 80 µM (inactive)

## C=CCSc1nc2ccccc2n1C(=O)/C=C/c1cc(OC)c(OC)c(OC)c1
  IC50: > 80 µM (inactive)

## CC(=O)O[C@H]1C(=O)[C@@]2(C)C([C@H](OC(=O)c3ccccc3)[C@]3(O)C[C@H](OC(=O)[C@H](O)[C@@H](NC(=O)c4ccccc4)c4ccccc4)C(C)=C1C3(C)C)[C@]1(OC(C)=O)CO[C@@H]1C[C@H]2O (stereo not given in full)
  IC50: > 80 µM (inactive)

## CCCCCCCCn1c2c(c(=N)c3ccccc31)CCC2
  IC50: 2.31 µM

## COc1ccc(NC(=O)/C(Cl)=C(/Cl)S(=O)Cc2ccc(C)cc2)cn1 (stereo not given)
  IC50: < 0.16 µM

## O=C(NCCOc1ccccc1)c1cc([N+](=O)[O-])ccc1N1CCOCC1
  IC50: > 80 µM (inactive)

## COc1cc(C(=O)Nc2ccc3c(c2)ncn3C)cc(OC)c1OC
  IC50: > 80 µM (inactive)
